{
  "source": "ChEMBL document CHEMBL6177999",
  "about": "“Discovery of 3-(Fluoro-imidazolyl)pyridazine Derivatives as Potent STING Agonists with Antitumor Activity” (J Med Chem, 2025)",
  "key": {"[1]": {"target": "T1, Stimulator of interferon genes protein (Mus musculus, UniProt Q3TBT3)", "T1 sequence (Q3TBT3 whole entry)": "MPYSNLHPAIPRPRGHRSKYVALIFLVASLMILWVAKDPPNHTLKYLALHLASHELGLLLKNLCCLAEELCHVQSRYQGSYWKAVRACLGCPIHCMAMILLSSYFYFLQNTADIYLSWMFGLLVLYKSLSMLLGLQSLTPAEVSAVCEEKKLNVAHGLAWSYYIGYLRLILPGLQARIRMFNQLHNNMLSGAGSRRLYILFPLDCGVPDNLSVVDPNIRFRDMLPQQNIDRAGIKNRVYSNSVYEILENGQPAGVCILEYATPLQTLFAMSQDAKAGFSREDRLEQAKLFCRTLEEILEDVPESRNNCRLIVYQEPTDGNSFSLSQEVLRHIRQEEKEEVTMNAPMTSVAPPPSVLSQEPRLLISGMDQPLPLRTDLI", "test": "Agonist activity at STING in mouse RAW-Lucia ISG cells harbouring SEAP reporter gene assessed as activation of cGAS-STING signaling pathway incubated for 24 hrs by QUANTI-Blue reagent based analysis"}, "[2]": {"target": "Stimulator of interferon genes protein (Homo sapiens, UniProt Q86WV6, G230A/R293Q)", "sequence (Q86WV6 whole entry G230A/R293Q)": "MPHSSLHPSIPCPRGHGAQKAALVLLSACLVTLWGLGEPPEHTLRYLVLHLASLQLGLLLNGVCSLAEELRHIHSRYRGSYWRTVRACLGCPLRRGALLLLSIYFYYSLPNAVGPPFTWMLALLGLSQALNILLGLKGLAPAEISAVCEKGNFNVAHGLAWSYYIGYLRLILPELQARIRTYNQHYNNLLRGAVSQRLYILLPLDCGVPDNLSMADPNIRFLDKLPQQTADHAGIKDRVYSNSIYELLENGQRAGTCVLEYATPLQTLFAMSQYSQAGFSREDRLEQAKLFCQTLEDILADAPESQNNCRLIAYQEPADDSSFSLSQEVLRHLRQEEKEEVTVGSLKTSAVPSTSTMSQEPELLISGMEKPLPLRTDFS"}, "[3]": {"target": "T2, Stimulator of interferon genes protein (Homo sapiens, UniProt Q86WV6)", "T2 sequence (Q86WV6 whole entry)": "as the sequence (Q86WV6 whole entry G230A/R293Q) above, with A230G, Q293R counted along it", "test": "Displacement of 5-FAM-labeled diABZI tracer from N-terminal 6xHis-tagged wild-type human STING CTD extracted from Escherichia coli BL21(DE3) incubated for 30 mins by competitive binding based fluorescence polarization assay"}, "[4]": {"target": "Stimulator of interferon genes protein (Homo sapiens, UniProt Q86WV6, R293Q)", "sequence (Q86WV6 whole entry R293Q)": "as the sequence (Q86WV6 whole entry G230A/R293Q) above, with A230G counted along it"}, "[5]": {"target": "T1, Stimulator of interferon genes protein", "test": "Agonist activity at STING in mouse RAW-Lucia ISG-KO-STING cells harbouring SEAP reporter gene assessed as activation of cGAS-STING signaling pathway incubated for 24 hrs by QUANTI-Blue reagent based analysis"}, "[6]": {"target": "T1, Stimulator of interferon genes protein", "test": "Displacement of 5-FAM-labeled diABZI tracer from N-terminal 6xHis-tagged wild-type mouse STING CTD extracted from Escherichia coli BL21(DE3) incubated for 30 mins by competitive binding based fluorescence polarization assay"}, "[7]": {"target": "T2, Stimulator of interferon genes protein", "test": "Displacement of 5-FAM-labeled diABZI tracer from N-terminal 6xHis-tagged human STING R232H mutant CTD extracted from Escherichia coli BL21(DE3) incubated for 30 mins by competitive binding based fluorescence polarization assay"}, "[8]": {"system": "B16-F10", "test": "Antitumor activity against mouse B16-F10 cells allografted in female C57BL/6 mouse assessed as tumor growth inhibition at 30 mg/kg, iv qd relative to control", "details": "B16-F10, read-out: TGI"}, "[9]": {"test": "Clearance in female C57BL/6 mouse at 10 mg/kg, iv measured up to 24 hrs by LC-MS/MS analysis", "details": "in vivo"}},
  "data": [
    {"smiles": "O=C(Nc1cc(Br)c(F)cc1C(=O)O)c1ccc(-n2cnc(F)c2)nn1", "values": [
      {"measurement": "EC50", "setting": "[1]", "value": 24.6, "unit": "µM"},
      {"measurement": "IC50", "setting": "[2]", "value": 0.98, "unit": "µM"},
      {"measurement": "IC50", "setting": "[3]", "value": 1.48, "unit": "µM"},
      {"measurement": "IC50", "setting": "[4]", "value": 1.45, "unit": "µM"},
      {"measurement": "EC50", "setting": "[5]", "value": "> 100", "unit": "µM"},
      {"measurement": "IC50", "setting": "[6]", "value": 2.64, "unit": "µM"},
      {"measurement": "IC50", "setting": "[7]", "value": 1.36, "unit": "µM"}
    ]},
    {"smiles": "O=C(Nc1cc(F)c(F)cc1C(=O)O)c1ccc(-n2ccnc2)nn1", "values": [
      {"measurement": "EC50", "setting": "[1]", "value": "> 100", "unit": "µM"},
      {"measurement": "inhibition in vivo at 30 mg/kg", "setting": "[8]", "value": 52.4, "unit": "%"},
      {"measurement": "EC50", "setting": "[5]", "value": "> 100", "unit": "µM"},
      {"measurement": "IC50", "setting": "[6]", "value": 1.87, "unit": "µM"},
      {"measurement": "clearance at 24 h", "setting": "[9]", "value": 123, "unit": "mL/min/kg"}
    ]},
    {"smiles": "O=C(Nc1cc(Cl)c(F)cc1C(=O)O)c1ccc(-n2cnc(F)c2)nn1", "values": [
      {"measurement": "EC50", "setting": "[1]", "value": 46.5, "unit": "µM"},
      {"measurement": "IC50", "setting": "[2]", "value": 0.94, "unit": "µM"},
      {"measurement": "IC50", "setting": "[3]", "value": 1.84, "unit": "µM"},
      {"measurement": "IC50", "setting": "[4]", "value": 1.91, "unit": "µM"},
      {"measurement": "EC50", "setting": "[5]", "value": "> 100", "unit": "µM"},
      {"measurement": "IC50", "setting": "[6]", "value": 2.51, "unit": "µM"},
      {"measurement": "IC50", "setting": "[7]", "value": 1.73, "unit": "µM"}
    ]}
  ]
}
